From patent US8435947B2, “Endothelial nitric oxide synthase antagonists and uses thereof for inhibiting oxygen toxicity” (Medical College of Georgia Research Institute, Inc., priority 2010, dated 2013)

Tests used:
[1] = test system: eNOS-Hsp90 interaction; assay: eNOS-Hsp90 co-immunoprecipitation in endothelial cells; assay type: cell-based, pigs; conditions: versus control peptide TAT-transfected cells
Procedure: To rule out the possibility that the effect of P326TAT on eNOS activity in endothelial cells is caused by its effect on eNOS-Hsp90 interaction, eNOS-Hsp90 association was measured by co-immunoprecipitation using eNOS antibody.

[2] = test system: pulmonary artery endothelial cells; assay: superoxide formation in endothelial cells (CMH spin trap, EPR); assay type: cell-based, pigs; conditions: endothelial cells, peptide 20 μm, versus control peptide TAT
Procedure: (§1) To measure NO production, endothelial cells were incubated with ABS peptides for 3 h. Then ionomycin (2 μM) was added to the cells. After an additional 30 min, culture medium was collected and ethanol-precipitated to remove proteins. 50 μl of the reaction mix were loaded to the SIEVERS machine for NOx measurement as described above. For superoxide assay, after incubation with ABS peptides, the spin trap CMH was added to the cells. Superoxide from cells was trapped for 1 h, and then cells were scraped and subjected to EPR spectroscopy.

[3] = target: T1, eNOS-β-actin association (Sus scrofa, UniProt Q6QAQ1); assay: eNOS-β-actin co-immunoprecipitation in pulmonary artery endothelial cells; assay type: cell-based, pigs; conditions: peptide 20 μm, 3 h
T1 construct: endogenous in cells; host or cells: porcine pulmonary artery endothelial cells (PAEC)
Procedure: Transfection of Endothelial Cells with ABS Peptides Pulmonary artery endothelial cells were incubated with ABS peptides at 20 μm final concentration in MEM medium. […] Cells were then incubated for another 2 h before being used for co-immunoprecipitation and eNOS activity assays.
Determination of eNOS-β-Actin Association, NO Production, and Superoxide Formation in Endothelial Cells eNOS-β-Actin association was evaluated using co-immunoprecipitation.
This TAT tag is a novel method used to facilitate delivery of biologically active proteins or peptides into cells and tissues through the fusion of a protein transduction domain to the protein or peptide of interest (Gustafsson, A. B., et al. (2002) Circulation 106, 735-39). To confirm the efficiency of P326TAT and control peptide TAT to enter endothelial cells, FITC-labeled P326TAT and FITC-labeled control peptide TAT were used. […] Endothelial cells were incubated with P326TAT and control peptide TAT for 3 h, and then eNOS-β-actin association was evaluated by co-immunoprecipitation using anti-eNOS antibody.

[4] = test system: PAEC; assay: peroxynitrite formation in hyperoxic PAEC (APF fluorescence); assay type: cell-based, pigs; conditions: 95% oxygen 24 h
Procedure: (§2) Third- to sixth-passage cells in monolayer culture were maintained in RPMI 1640 medium containing 4% fetal bovine serum and antibiotics (10 units/ml penicillin, 100 μg/ml streptomycin, 20 μg/ml gentamicin, and 2 μg/ml Fungizone) and were used 2 or 3 days after confluence.
(§3) To reduce β-actin availability to eNOS, the β-actin mRNA was silenced using its siRNA as previously reported by us (Kondrikov, D., et al. (2006) Am. J. Physiol. Lung Cell Mol. Physiol. 290, L41-L50).

[5] = test system: eNOS; assay: eNOS catalytic activity (L-citrulline formation) in hyperoxic PAEC; assay type: cell-based, pigs; conditions: 95% oxygen 24 h
Procedure: as §2
(§4) The homogenates were centrifuged at 100,000 g for 60 min at 4° C., and the total membrane pellet was resuspended in buffer B (bufferAplus 2.5 mM CaCl2). The resulting suspension was used for determination of eNOS activity by monitoring the formation of L-[^3H]citrulline from L-[^3H]arginine (Su, Y., et al. (2003) Am. J. Physiol. Cell Physiol. 284, C1542-C1549). To determine NO production, thapsigargin (100 nM) was added to the medium of endothelial cells following normoxic or hyperoxic exposure. After 60 min of incubation, culture medium was collected and ethanol-precipitated to remove proteins. 50 μl of the reaction mix were loaded to the SIEVERS machine for NOx (NO2 and NO3) measurement according to standard manufacturer's instruction as previously described (Church, J E., et al. (2006) J. Biol. Chem. 281, 1477-1488). Protein contents in the cell lysates were determined by Lowry's method.
as §3

[6] = test system: PAEC; assay: NO production in hyperoxic PAEC; assay type: cell-based, pigs; conditions: 95% oxygen 24 h
Procedure: as §2, §4, §3

[7] = test system: PAEC; conditions: peptide 20 μM, 95% oxygen 24 h
Procedure: as §2

[8] = test system: pulmonary artery endothelial cells; assay: NO production in endothelial cells (NOx, SIEVERS); assay type: cell-based, pigs; conditions: peptide 20 μm 3 h, ionomycin 2 μM
Procedure: After wild-type and eNOS mutant transfection, ionomycin (2 μm) was added to the cells. After 30 min of incubation, culture medium was collected and ethanol-precipitated to remove proteins. 50 μl of the reaction mix were loaded to the SIEVERS machine for NOx measurement according to standard manufacturer's instructions (Church, J. E., and Fulton, D. (2006) J. Biol. Chem. 281, 1477-88). In some experiments, N^G-nitro-1-arginine methyl ester (L-NAME), a specific eNOS inhibitor, was used to inhibit NO production. […] For superoxide assay, after incubation with ABS peptides, the spin trap CMH was added to the cells. Superoxide from cells was trapped for 1 h, and then cells were scraped and subjected to EPR spectroscopy as previously described (Sud, N., et al. (2008) Am. J. Physiol. Cell Physiol. 294, C1407-18). Protein contents in the cell lysates were determined by Lowry's method.
as §1, with “Superoxide from cells was trapped for 1 h, and then cells were scraped and subjected to EPR spectroscopy.” left out

[9] = target: T1, eNOS-β-actin association; assay: eNOS-β-actin co-immunoprecipitation in PAEC under normoxia or hyperoxia; assay type: cell-based, pigs
Procedure: as §2, §3

[10] = test system: pulmonary artery endothelial cells; assay: endothelial monolayer wound repair; assay type: cell-based, pigs; conditions: P326TAT 20 μm
Procedure: Pulmonary artery endothelial cells were incubated with ABS peptides for 3 h. Then endothelial monolayer wound repair in the absence and presence of PEG-SOD (100 units/ml) and NOC-18 (10 μm) was measured as previously reported (Su, Y., et al. (2006) FASEB J. 20, 1443-51). Endothelial monolayer wound repair distance was expressed as the width of the wound before treatment subtracted by that after treatment.

RKKRRQRRRALGLRWYAL [P326TAT]
eNOS-Hsp90 interaction (Hsp90 co-precipitated with eNOS) [1]: did not affect eNOS-Hsp90 interaction
superoxide formation [2]: much higher in P326TAT-transfected endothelial cells than control peptide TAT-transfected endothelial cells
amount of β-actin co-immunoprecipitated with eNOS [3]: significantly decreased the amount of β-actin co-immunoprecipitated with eNOS
hyperoxia-induced increase in peroxynitrite formation [4]: prevented hyperoxiainduced increases in NO and peroxynitrite formation
hyperoxia-induced increase in eNOS activity [5]: hyperoxic exposure did not induce an increase in eNOS activity
hyperoxia-induced increase in NO formation [6]: prevented hyperoxiainduced increases in NO and peroxynitrite formation
tyrosine nitration of proteins at 250, 100, 75, and 60 kDa, hyperoxia versus normoxia [7]: comparable between normoxia and hyperoxia
NO production [8]: significantly decreased NO production
hyperoxia-induced increase in β-actin co-immunoprecipitated with eNOS ([9]; 95% oxygen 24 h): prevented hyperoxia-induced increase in eNOS-β-actin co-immunoprecipitation
amount of β-actin co-immunoprecipitated with eNOS ([9]; peptide 20 μM): significantly decreased the amount of β-actin co-immunoprecipitated with eNOS
endothelial monolayer wound repair [10]: exhibited lower capacity of wound repair
